# Laboratory results taken from patent US10258039B2, “Substituted pyrazolylpyrazole derivative and use of same as herbicide” (KYOYU AGRI CO., LTD., priority 2015, dated 2019).
# Columns and labels:
# Format in all cases: in vivo
# Oryza sativa = assay: Paddy herbicidal activity test, phytotoxicity to transplanted rice; conditions: rice transplanted at 2.0 leaf stage, 30 days, 30° C.
# Procedure: (§1) 1. Paddy Herbicidal Activity Test
# (§2) Rice paddy soil was filled into a 1/10000 are pot followed by the addition of suitable amounts of water and chemical fertilizer, kneading, seeding with Echinochloa crus-galli, Monochoria vaginalis and Scirpus juncoides and maintaining in an irrigated state at a water depth of 3 cm.
# (§3) Wettable powders of Target Compound (I) shown in. Table 1 prepared in compliance with the preparation examples were diluted with a suitable amount of water, rice plants in the 2.0 leaf stage were transplanted during 3.5 leaf stage of Echinochloa crus-galli, and treated by dropping in chemical in the prescribed amount per 10 are using a pipette.
# (§4) After treating for 30 days in a glass greenhouse at an average atmospheric temperature of 30° C., the herbicidal efficacy thereof was investigated.
# (§5) Evaluation of herbicidal efficacy was carried out by comparing growth inhibition rate (%) with an untreated group, while evaluation of phytotoxicity was carried out by comparing growth inhibition rate (%) with the state of a complete eradication group, and were evaluated at 11 levels indicated below.
# Chenopodium album [1] = assay: Weed foliar treatment test (Test 3, 1.0 to 2.0 leaf stage); conditions: foliar spray at 1.0 to 2.0 leaf stage of Digitaria ciliaris, 3 weeks, 25° C.
# Procedure: (§6) 3. Weed Foliar Treatment Test
# (§7) Soil was filled into a 1/6000 are pot followed by seeding with Digitaria ciliaris, Chenopodium album and Amaranthus retroflexus, covering with soil, and cultivating in a glass greenhouse at an average atmospheric temperature of 25° C.
# (§8) Wettable powders of Target Compound (I) shown in Table 1 prepared in compliance with the preparation examples were diluted with water to the prescribed amount of chemical and uniformly sprayed onto the weeds using 150 liters of sprayed water per 10 are when Digitaria ciliaris had grown to the 1.0 to 2.0 leaf stage.
# (§9) After treating for 3 weeks in a glass greenhouse at an average atmospheric temperature of 25° C., the herbicidal efficacy thereof was investigated.
# (§10) Evaluation of herbicidal efficacy was carried out in the same manner as the above-mentioned Test Example 1.
# Digitaria ciliaris [2] = assay: as above; conditions: foliar spray at 1.0 to 2.0 leaf stage of Digitaria ciliaris, 3 weeks, 25° C.
# Procedure: as §6, §7, §8, §9, §10
# Amaranthus retroflexus [3] = assay: as above; conditions: foliar spray at 1.0 to 2.0 leaf stage of Digitaria ciliaris, 3 weeks, 25° C.
# Procedure: as §6, §7, §8, §9, §10
# Scirpus juncoides = assay: Paddy herbicidal activity test; conditions: irrigated paddy pot, 30 days, 30° C.
# Procedure: as §1, §2, §3, §4, §5
# Echinochloa crus-galli = assay: Paddy herbicidal activity test; conditions: irrigated paddy pot, treated at 3.5 leaf stage of Echinochloa crus-galli, 30 days, 30° C.
# Procedure: as §1, §2, §3, §4, §5
# Monochoria vaginalis = assay: Paddy herbicidal activity test; conditions: irrigated paddy pot, 30 days, 30° C.
# Procedure: as §1, §2, §3, §4, §5
# Galinsoga parviflora = assay: Weed foliar treatment test (Test 4, 4.0 to 5.0 leaf stage); conditions: 10g a.i./10a; foliar spray at 4.0 to 5.0 leaf stage of Digitaria ciliaris; 20 days, 25° C.
# Procedure: (§11) 4. Weed Foliar Treatment Test
# (§12) Field soil was filled into a 1/4500 are pot followed by seeding with Digitaria ciliaris and Galinsoga parviflora, covering with soil and cultivating in a glass greenhouse at an average atmospheric temperature of 25° C.
# (§13) Wettable powders of Target Compound (I) shown in Table 1 prepared in compliance with the preparation examples were diluted with water to the prescribed amount of chemical and uniformly sprayed onto the weeds using 100 liters of sprayed water per 10 are when Digitaria ciliaris had grown to the 4.0 to 5.0 leaf stage (plant height: 10 cm to 15 cm).
# (§14) After treating for 20 days in a glass greenhouse at an average atmospheric temperature of 25° C., the herbicidal efficacy thereof was investigated.
# as §10
# Digitaria ciliaris [4] = assay: as above; conditions: 10g a.i./10a; foliar spray at 4.0 to 5.0 leaf stage of Digitaria ciliaris (plant height 10 cm to 15 cm); 20 days, 25° C.
# Procedure: as §11, §12, §13, §14, §10
# Chenopodium album [5] = assay: Farming soil treatment test; conditions: soil surface spray prior to weed growth, 30 days, 30° C.
# Procedure: (§15) 2. Farming Soil Treatment Test
# (§16) Field soil was filled into a 1/6000 are pot followed by seeding with Digitaria ciliaris, Chenopodium album and Amaranthus retroflexus and covering with soil.
# (§17) Wettable powders of compounds of formula (I) shown in Table 1 prepared in compliance with the preparation examples were diluted with water to the prescribed amount of chemical and uniformly sprayed onto each soil surface layer using 100 liters of sprayed water per 10 are prior to weed growth following seeding.
# as §4, §10
# Digitaria ciliaris [6] = assay: Farming soil treatment test; conditions: soil surface spray prior to weed growth, 30 days, 30° C.
# Procedure: as §15, §16, §17, §4, §10
# Amaranthus retroflexus [7] = assay: Farming soil treatment test; conditions: soil surface spray prior to weed growth, 30 days, 30° C.
# Procedure: as §15, §16, §17, §4, §10
structure (smiles),measurement,setting,value
"N#Cc1cnn(-c2nn3c(c2Cl)CCCC3)c1NC(=O)C1CC1 [Control agent 4.190, reference compound]","phytotoxicity, Oryza sativa",Oryza sativa; 1g a.i./10a,8 (8: 80% to less than 90%)
same,"phytotoxicity, Oryza sativa",Oryza sativa; 5g a.i./10a,9 (9: 90% to less than 100%)
same,"herbicidal efficacy, Chenopodium album",Chenopodium album [1]; 5g a.i./10a,5 (5: 50% to less than 60%)
same,"herbicidal efficacy, Chenopodium album",Chenopodium album [1]; 10g a.i./10a,6 (6: 60% to less than 70%)
same,"herbicidal efficacy, Digitaria ciliaris",Digitaria ciliaris [2]; 5g a.i./10a,5 (5: 50% to less than 60%)
same,"herbicidal efficacy, Digitaria ciliaris",Digitaria ciliaris [2]; 10g a.i./10a,6 (6: 60% to less than 70%)
same,"herbicidal efficacy, Amaranthus retroflexus",Amaranthus retroflexus [3]; 5g a.i./10a,4 (4: 40% to less than 50%)
same,"herbicidal efficacy, Amaranthus retroflexus",Amaranthus retroflexus [3]; 10g a.i./10a,6 (6: 60% to less than 70%)
same,"herbicidal efficacy, Scirpus juncoides",Scirpus juncoides; 1g a.i./10a,4 (4: 40% to less than 50%)
same,"herbicidal efficacy, Scirpus juncoides",Scirpus juncoides; 5g a.i./10a,5 (5: 50% to less than 60%)
same,"herbicidal efficacy, Echinochloa crus-galli",Echinochloa crus-galli; 1g a.i./10a,6 (6: 60% to less than 70%)
same,"herbicidal efficacy, Echinochloa crus-galli",Echinochloa crus-galli; 5g a.i./10a,6 (6: 60% to less than 70%)
same,"herbicidal efficacy, Monochoria vaginalis",Monochoria vaginalis; 1g a.i./10a,4 (4: 40% to less than 50%)
same,"herbicidal efficacy, Monochoria vaginalis",Monochoria vaginalis; 5g a.i./10a,5 (5: 50% to less than 60%)
same,"herbicidal efficacy, Galinsoga parviflora",Galinsoga parviflora,4 (4: 40% to less than 50%)
same,"herbicidal efficacy, Digitaria ciliaris",Digitaria ciliaris [4],2 (2: 20% to less than 30%)
same,"herbicidal efficacy, Chenopodium album",Chenopodium album [5]; 5g a.i./10a,5 (5: 50% to less than 60%)
same,"herbicidal efficacy, Chenopodium album",Chenopodium album [5]; 10g a.i./10a,6 (6: 60% to less than 70%)
same,"herbicidal efficacy, Digitaria ciliaris",Digitaria ciliaris [6]; 5g a.i./10a,3 (3: 30% to less than 40%)
same,"herbicidal efficacy, Digitaria ciliaris",Digitaria ciliaris [6]; 10g a.i./10a,4 (4: 40% to less than 50%)
same,"herbicidal efficacy, Amaranthus retroflexus",Amaranthus retroflexus [7]; 5g a.i./10a,4 (4: 40% to less than 50%)
same,"herbicidal efficacy, Amaranthus retroflexus",Amaranthus retroflexus [7]; 10g a.i./10a,4 (4: 40% to less than 50%)
